Reference: patent US20260083751A1, “ALLOSTERIC MODULATORS OF ANDROGEN RECEPTOR COACTIVATOR RECRUITMENT FOR CRPC THERAPY” (University of Pittsburgh – Of the Commonwealth System of …, priority 2022, published 2026)
“Also recorded” adds a separate entry of the source.

Molecular target: T1, AR (Homo sapiens, UniProt P10275, T878A)
T1 construct: the amount of soluble AR protein in heat shocked C4-2 cell lysates; endogenous in cells; host or cells: C4-2 castration resistant prostate cancer cells
T1 sequence (P10275 1-920 T878A): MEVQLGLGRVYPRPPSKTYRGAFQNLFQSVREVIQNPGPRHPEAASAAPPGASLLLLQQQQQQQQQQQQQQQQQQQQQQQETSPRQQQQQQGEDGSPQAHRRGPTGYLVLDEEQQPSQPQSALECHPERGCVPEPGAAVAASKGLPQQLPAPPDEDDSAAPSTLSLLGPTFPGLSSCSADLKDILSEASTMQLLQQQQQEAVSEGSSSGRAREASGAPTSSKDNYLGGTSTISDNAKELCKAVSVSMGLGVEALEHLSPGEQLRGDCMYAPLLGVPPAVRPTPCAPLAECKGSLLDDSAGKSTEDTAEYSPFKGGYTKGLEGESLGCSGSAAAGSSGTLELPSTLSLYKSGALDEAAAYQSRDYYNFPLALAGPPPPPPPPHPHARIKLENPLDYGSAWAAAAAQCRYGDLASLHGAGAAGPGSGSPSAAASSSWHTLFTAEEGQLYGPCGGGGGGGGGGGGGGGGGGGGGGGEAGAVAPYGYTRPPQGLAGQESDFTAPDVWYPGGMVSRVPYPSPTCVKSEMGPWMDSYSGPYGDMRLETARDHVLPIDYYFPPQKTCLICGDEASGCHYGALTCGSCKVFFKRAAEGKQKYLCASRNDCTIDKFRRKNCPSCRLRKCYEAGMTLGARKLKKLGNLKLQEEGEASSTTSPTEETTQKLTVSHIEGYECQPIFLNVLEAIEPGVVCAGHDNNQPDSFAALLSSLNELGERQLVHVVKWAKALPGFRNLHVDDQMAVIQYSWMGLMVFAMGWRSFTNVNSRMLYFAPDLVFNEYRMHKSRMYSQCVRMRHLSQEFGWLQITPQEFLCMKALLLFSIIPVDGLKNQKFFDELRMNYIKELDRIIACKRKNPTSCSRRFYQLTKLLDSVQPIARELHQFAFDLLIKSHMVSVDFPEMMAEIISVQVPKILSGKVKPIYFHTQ
Assay: Western blotting cellular thermal shift assay for AR in C4-2 cells
Assay type: cell-based
Conditions: for AR thermal stability at 46° C., compound alone (western blot): hits 20 μM for 1 h at 37° C.; for DHT-enhanced AR thermal stability at 46° C. (western blot): hits 20 μM, 10 nM DHT
Protocol: Western Blotting Cellular Thermal Shift Assays for TIF2 and AR Target Engagement in C4-2 Cells: C4-2 cells were harvested by trypsinization, washed 1× by centrifugation at 270×g for 5 min and resuspension in PBS, counted, centrifugated at 270× g for 5 min and resuspended at 7×10^6 cells per mL in Opti-MEM medium (Gibco, Gaithersburg, MD). 50 μL of C4-2 cell suspension (3.5×10^5 cells) were then transferred to PCR tubes that were placed in a T-100 thermocycler (BioRad, Hercules, CA) and a 2° C. interval temperature step gradient from 37° C. to 53° C. was applied. Cells were maintained at each step of the temperature gradient for 5 min and then tubes were withdrawn and placed on ice. 50 μL of cell lysis buffer, 500 mM NaCl, 1% NP-40, 1× protease inhibitor cocktail in PBS were added to the heat shocked cell suspensions in PCR tubes and placed on ice for an additional 30 min. Cell lysates were then centrifuged at 14,000 RPM (18,800×g) at 4° C. for 15 min and supernatants were transferred to new tubes and protein concentrations were determined in a bicinchoninic acid (BCA) assay. 45 μL of cell lysis supernatants were mixed with 15 μL of 5×SDS-PAGE sample buffer and placed in a heat block at 100° C. for 5 min. The protein constituents of heat shocked C4-2 cell lysis supernatants were separated by SDS-PAGE on 8% separating gels, transferred to nitrocellulose membranes that were blocked for 1 h at room temperature in 5% non-fat milk in TBST, and then probed overnight at 4° C. with a 1:1000 dilution of either rabbit anti-AR (Cell Signaling, Danvers, MA) or rabbit anti-TIF2 (Bethyl Laboratories, Waltham, MA) primary antibodies in TBST containing 5% non-fat milk. Membranes were then washed 3× in TBST buffer for 10 min, then incubated with a 1:10,000 dilution of the goat anti-rabbit IgG HRP conjugated secondary antibody (Invitrogen, Carlsbad, CA) in TBST containing 5% non-fat milk for 1 h at room temperature. Western blots were then washed 3× in TBST buffer and developed with Pierce ECL western blotting substrate. Images of ECL western blots were acquired on an iBright™ 1500 imaging system and quantified using the iBright™ image analysis software.

Row | AR thermal stability at 46° C., compound alone (western blot) | SMILES | DHT-enhanced AR thermal stability at 46° C. (western blot)
1 | did not stabilize AR | Cc1ccccc1-c1cc(O)c2c(c1)CN(c1nc(C(N)=O)cs1)CCO2 [Compound S1-1] | only partially blocked DHT-enhanced AR stabilization; also recorded: inhibition of DHT-enhanced AR thermal stability
2 | did not stabilize AR | Cc1nsc(NC(=O)N2CCC(Sc3ccccc3C)CC2)n1 [Compound S2-6] | blocked DHT-enhanced AR thermal stabilization below DMSO baseline levels; also recorded: inhibition of DHT-enhanced AR thermal stability
3 | did not stabilize AR | Cc1c(-c2ccccc2F)[nH]c2ccc(CNC(=O)CCc3cn[nH]c3)cc12 [Compound S3-11] | only partially blocked DHT-enhanced AR stabilization; also recorded: inhibition of DHT-enhanced AR thermal stability
